Among the targets are AKT2 (Homo sapiens, UniProt P31751); MARK2 (Homo sapiens, UniProt Q7KZI7); SRPK2 (Homo sapiens, UniProt P78362); GSK3B (Homo sapiens, UniProt P49841).
Assay in all cases: biochemical
Design in all cases: DiscoveRx KINOMEscan active site-directed competition binding; percent of control kinase bound to immobilised ligand

For a further assay, the target named is T1, PIK3C2G (Homo sapiens, UniProt O75747).
T1 sequence (O75747 1-1486): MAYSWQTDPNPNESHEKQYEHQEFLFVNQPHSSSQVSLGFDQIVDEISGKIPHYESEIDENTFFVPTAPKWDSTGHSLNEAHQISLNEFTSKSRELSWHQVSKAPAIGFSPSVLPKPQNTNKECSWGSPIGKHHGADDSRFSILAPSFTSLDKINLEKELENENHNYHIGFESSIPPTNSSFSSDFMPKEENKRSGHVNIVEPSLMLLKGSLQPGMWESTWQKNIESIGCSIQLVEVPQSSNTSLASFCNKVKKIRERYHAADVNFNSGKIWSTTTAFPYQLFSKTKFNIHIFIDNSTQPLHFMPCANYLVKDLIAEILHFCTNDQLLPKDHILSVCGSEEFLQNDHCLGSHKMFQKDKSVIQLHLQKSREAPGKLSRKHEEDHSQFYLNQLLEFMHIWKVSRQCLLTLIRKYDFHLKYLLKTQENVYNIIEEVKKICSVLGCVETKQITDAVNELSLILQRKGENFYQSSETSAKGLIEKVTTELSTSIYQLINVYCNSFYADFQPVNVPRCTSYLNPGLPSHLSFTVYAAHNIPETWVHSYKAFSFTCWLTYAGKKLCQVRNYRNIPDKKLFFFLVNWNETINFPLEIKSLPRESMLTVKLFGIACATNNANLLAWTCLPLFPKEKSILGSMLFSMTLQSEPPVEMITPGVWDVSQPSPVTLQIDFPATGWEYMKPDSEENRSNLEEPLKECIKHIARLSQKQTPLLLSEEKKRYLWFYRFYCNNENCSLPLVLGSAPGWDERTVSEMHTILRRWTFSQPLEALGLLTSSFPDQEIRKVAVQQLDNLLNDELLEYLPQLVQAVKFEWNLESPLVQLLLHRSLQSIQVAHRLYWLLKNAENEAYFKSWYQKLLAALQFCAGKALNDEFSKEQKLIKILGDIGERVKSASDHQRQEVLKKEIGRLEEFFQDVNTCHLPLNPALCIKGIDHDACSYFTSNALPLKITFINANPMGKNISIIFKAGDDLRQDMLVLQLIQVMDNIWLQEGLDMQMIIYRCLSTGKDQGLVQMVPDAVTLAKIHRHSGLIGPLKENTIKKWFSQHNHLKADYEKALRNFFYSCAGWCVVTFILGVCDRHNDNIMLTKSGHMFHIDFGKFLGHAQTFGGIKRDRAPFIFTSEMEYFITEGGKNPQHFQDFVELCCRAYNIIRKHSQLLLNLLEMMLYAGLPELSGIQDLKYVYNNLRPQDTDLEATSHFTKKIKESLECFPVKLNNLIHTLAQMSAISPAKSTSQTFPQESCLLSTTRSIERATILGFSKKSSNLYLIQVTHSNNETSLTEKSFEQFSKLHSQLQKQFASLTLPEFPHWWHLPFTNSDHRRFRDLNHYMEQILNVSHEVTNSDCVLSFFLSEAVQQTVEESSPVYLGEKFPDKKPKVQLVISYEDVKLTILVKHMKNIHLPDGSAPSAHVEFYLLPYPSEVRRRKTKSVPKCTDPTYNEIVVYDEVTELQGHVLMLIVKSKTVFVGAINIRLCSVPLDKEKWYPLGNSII

A further assay concerns the target T2, AMPK-alpha1 (Homo sapiens, UniProt Q13131).
T2 construct: gene PRKAA1

For another assay, the target named is T3, CTK (Homo sapiens, UniProt P42679).
T3 construct: gene MATK
T3 sequence (P42679 1-507): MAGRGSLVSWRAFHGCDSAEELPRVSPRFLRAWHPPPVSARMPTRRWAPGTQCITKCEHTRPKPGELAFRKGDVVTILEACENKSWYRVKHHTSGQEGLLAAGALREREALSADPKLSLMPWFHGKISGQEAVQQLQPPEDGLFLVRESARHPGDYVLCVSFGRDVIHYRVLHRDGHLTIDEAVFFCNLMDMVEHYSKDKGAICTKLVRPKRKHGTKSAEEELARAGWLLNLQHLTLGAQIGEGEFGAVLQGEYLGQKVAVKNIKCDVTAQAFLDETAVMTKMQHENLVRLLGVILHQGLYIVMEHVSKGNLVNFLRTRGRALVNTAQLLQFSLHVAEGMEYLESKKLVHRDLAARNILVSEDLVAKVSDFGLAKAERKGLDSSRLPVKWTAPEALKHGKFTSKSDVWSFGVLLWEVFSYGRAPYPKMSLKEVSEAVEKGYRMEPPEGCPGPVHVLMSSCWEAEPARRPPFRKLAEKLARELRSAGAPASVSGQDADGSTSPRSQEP

For a further assay, the target named is T4, QSK (Homo sapiens, UniProt Q9Y2K2).
T4 construct: gene SIK3
T4 sequence (Q9Y2K2 whole entry): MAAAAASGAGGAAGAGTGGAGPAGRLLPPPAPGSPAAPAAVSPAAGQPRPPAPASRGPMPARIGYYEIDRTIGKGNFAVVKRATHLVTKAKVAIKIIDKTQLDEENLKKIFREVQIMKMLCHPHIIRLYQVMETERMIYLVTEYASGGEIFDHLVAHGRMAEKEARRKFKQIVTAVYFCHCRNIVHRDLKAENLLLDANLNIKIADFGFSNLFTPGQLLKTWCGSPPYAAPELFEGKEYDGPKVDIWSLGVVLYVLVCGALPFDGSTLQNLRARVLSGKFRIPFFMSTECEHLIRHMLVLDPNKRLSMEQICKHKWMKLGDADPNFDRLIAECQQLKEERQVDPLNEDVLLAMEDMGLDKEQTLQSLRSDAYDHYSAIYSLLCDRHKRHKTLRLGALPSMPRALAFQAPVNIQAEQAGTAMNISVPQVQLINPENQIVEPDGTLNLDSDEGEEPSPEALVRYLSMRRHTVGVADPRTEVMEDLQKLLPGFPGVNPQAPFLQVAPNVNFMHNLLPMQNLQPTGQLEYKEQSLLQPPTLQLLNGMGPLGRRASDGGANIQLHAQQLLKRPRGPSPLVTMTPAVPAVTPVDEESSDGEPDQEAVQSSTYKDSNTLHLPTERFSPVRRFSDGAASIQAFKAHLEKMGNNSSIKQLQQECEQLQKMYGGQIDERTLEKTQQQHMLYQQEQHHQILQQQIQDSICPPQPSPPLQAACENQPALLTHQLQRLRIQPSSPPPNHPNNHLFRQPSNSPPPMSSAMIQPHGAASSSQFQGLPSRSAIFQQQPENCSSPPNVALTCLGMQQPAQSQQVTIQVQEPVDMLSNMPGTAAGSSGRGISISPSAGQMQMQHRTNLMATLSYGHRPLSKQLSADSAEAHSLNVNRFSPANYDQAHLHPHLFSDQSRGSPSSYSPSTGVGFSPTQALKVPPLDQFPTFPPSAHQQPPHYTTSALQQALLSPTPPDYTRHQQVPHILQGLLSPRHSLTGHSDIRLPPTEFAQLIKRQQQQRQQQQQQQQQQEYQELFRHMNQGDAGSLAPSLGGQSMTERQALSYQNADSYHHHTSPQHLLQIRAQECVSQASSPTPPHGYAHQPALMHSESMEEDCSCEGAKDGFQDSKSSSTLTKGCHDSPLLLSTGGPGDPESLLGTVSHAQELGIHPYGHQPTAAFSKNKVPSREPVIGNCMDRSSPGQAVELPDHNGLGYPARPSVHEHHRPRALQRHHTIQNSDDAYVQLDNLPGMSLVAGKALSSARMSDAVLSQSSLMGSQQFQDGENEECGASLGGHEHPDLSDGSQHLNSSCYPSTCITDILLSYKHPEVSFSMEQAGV

For another assay, the target named is T5, BIKE (Homo sapiens, UniProt Q9NSY1).
T5 construct: gene BMP2K
T5 sequence (Q9NSY1 whole entry): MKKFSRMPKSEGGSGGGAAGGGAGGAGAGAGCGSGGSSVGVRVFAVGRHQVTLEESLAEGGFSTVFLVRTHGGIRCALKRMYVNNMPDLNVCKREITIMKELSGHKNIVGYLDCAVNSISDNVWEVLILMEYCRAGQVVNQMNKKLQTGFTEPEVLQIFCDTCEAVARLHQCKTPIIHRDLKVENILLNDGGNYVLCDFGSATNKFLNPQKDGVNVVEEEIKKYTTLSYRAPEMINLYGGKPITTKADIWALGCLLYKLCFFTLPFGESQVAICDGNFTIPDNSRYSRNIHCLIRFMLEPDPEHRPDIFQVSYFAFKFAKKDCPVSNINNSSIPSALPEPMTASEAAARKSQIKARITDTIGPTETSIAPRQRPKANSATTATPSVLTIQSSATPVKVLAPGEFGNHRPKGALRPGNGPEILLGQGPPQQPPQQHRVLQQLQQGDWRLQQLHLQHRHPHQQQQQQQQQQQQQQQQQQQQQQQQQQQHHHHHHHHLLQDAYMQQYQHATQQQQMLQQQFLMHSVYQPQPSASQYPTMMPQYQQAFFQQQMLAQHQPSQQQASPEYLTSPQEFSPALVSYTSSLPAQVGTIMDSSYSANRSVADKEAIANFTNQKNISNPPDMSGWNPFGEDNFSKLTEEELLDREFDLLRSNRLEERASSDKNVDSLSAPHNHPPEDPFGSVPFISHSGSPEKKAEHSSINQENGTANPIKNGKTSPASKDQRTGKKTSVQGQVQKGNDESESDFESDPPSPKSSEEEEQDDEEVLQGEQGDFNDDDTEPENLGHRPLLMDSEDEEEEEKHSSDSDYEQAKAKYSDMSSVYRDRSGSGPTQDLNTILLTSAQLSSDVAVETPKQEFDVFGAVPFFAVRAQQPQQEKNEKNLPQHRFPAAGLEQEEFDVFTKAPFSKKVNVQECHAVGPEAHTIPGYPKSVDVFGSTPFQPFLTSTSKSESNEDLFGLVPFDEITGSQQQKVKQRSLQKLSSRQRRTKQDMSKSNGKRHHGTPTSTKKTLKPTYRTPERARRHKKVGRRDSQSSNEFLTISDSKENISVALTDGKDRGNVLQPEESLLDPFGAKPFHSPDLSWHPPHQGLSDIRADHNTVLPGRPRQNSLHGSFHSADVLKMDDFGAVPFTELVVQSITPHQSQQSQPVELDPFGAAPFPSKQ

The mark [1] stands for this setting: read-out: Niraparib (MK-4827) / %Ctrl @ 10000nM.
[2] abbreviates: read-out: Talazoparib (BMN 673) / %Ctrl @ 10000nM.
[3] abbreviates: read-out: Rucaparib / %Ctrl @ 10000nM, binding competition, % of control.
Setting [4] is: read-out: Olaparib / %Ctrl @ 10000nM.

Among the data in article PMC7026418, “The kinase polypharmacology landscape of clinical PARP inhibitors” (Scientific Reports, 2020) are percent of control binding values, retold here.

Like-named read-outs stand apart in the source and are kept apart here.

T2 sequence (Q13131 whole entry): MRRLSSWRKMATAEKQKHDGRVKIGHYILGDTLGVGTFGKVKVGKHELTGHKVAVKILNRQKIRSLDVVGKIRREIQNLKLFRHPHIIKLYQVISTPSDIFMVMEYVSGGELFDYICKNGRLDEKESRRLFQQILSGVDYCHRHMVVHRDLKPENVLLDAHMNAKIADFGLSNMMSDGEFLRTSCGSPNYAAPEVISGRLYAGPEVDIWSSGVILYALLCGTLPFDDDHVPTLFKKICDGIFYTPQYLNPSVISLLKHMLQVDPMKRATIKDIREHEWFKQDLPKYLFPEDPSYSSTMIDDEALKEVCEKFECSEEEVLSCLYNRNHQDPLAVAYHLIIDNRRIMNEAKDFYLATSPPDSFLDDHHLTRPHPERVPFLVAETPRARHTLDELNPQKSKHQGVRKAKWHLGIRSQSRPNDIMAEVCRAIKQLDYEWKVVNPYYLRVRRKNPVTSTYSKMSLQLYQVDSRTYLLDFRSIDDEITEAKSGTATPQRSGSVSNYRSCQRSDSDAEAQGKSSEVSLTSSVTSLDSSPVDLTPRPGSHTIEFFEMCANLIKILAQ
AKT2, sequence (P31751 whole entry): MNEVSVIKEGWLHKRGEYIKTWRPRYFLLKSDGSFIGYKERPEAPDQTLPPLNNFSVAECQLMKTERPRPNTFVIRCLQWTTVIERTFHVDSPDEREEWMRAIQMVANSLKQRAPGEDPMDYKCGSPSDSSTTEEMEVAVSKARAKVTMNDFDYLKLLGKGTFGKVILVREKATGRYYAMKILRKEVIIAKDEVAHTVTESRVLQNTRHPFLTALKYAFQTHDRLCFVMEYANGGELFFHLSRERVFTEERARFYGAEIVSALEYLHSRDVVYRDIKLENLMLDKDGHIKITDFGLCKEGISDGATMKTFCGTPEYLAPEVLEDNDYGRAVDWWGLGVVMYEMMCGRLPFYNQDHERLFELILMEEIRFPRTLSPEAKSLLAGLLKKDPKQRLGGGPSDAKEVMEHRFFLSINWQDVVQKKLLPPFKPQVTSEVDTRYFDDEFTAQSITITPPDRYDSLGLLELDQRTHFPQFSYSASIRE
GSK3B, sequence (P49841 whole entry): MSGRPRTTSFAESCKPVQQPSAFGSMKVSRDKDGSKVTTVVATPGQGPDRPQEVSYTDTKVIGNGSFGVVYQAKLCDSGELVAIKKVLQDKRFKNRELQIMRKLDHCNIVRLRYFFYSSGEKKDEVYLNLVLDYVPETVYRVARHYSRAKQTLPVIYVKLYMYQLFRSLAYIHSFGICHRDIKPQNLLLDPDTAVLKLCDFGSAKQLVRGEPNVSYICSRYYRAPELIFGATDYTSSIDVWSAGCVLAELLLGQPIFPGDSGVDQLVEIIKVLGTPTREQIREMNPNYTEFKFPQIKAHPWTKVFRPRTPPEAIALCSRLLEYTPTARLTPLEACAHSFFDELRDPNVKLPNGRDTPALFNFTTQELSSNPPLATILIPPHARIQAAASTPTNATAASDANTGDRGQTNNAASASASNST
SRPK2, sequence (P78362 whole entry): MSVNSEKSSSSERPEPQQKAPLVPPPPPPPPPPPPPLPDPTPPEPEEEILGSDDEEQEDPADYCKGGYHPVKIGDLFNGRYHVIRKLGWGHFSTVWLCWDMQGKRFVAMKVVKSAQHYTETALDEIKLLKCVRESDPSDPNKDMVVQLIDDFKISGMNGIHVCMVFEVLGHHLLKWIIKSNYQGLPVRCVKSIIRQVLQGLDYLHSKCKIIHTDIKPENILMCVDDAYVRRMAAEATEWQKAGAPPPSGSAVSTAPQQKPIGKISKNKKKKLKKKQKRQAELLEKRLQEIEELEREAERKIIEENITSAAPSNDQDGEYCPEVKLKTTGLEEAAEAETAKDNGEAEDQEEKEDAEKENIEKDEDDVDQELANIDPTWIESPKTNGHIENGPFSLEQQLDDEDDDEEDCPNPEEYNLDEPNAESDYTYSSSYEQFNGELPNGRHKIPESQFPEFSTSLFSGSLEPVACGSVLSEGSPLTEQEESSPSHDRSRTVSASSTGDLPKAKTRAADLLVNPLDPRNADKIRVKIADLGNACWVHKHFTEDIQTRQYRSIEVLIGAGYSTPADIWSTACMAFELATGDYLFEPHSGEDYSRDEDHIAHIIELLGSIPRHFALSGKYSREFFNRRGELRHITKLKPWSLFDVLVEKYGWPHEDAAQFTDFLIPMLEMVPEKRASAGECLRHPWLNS

With `NC(=O)c1cccc2cn(-c3ccc([C@@H]4CCCNC4)cc3)nc12` [Niraparib], the percent of control binding at 10 µM on PIK3C2G (setting [1]) is 79%; at AMPK-alpha1 (setting [1]), 77%; at AKT2 (setting [1]), 93%; on CTK (setting [1]) it was 100%; on MARK2 (setting [1]) it was 75%; at SRPK2 (setting [1]) it was 100%. Also, the figures for the percent of control binding at 10 µM on QSK (setting [1]), on BIKE (setting [1]) and on GSK3B (setting [1]) were 93%, 81% and 88%, respectively.

Consider `Cn1ncnc1[C@H]1c2n[nH]c(=O)c3cc(F)cc(c23)N[C@@H]1c1ccc(F)cc1` [Talazoparib], for which the percent of control binding at 10 µM at PIK3C2G (setting [2]) turned out to be 81%; on AMPK-alpha1 (setting [2]), 100%; on AKT2 (setting [2]), 84%; at CTK (setting [2]), 78%; on MARK2 (setting [2]), 100%; at SRPK2 (setting [2]), 100%. The percent of control binding at 10 µM was found to be 75% on QSK (setting [2]), 93% at BIKE (setting [2]) and 100% at GSK3B (setting [2]).

Consider `CNCc1ccc(-c2[nH]c3cc(F)cc4c3c2CCNC4=O)cc1` [Rucaparib], for which the percent of control binding at 10 µM came out at 73% on PIK3C2G (setting [3]); 92% on AMPK-alpha1 (setting [3]); 87% at AKT2 (setting [3]); 76% at CTK (setting [3]); 92% at MARK2 (setting [3]); 68% at SRPK2 (setting [3]). Also, the figures for the percent of control binding at 10 µM on QSK (setting [3]), at BIKE (setting [3]) and on GSK3B (setting [3]) were 77%, 72% and 89%, respectively.

Take `O=C(c1cc(Cc2n[nH]c(=O)c3ccccc23)ccc1F)N1CCN(C(=O)C2CC2)CC1` [Olaparib]: the percent of control binding at 10 µM at PIK3C2G (setting [4]) came to 82%; at AMPK-alpha1 (setting [4]) it was 98%; at AKT2 (setting [4]), 79%; at CTK (setting [4]), 96%; at MARK2 (setting [4]), 100%; on SRPK2 (setting [4]), 86%. Besides, the results for the percent of control binding at 10 µM at QSK (setting [4]), on BIKE (setting [4]) and on GSK3B (setting [4]) were 83%, 100% and 98%, respectively.
